Patent publication US20250129023A1, “[…]” (Reunion Neuroscience, Inc., priority 2020, published 2025)
Where a name gives a salt, the structure may show the parent alone.

How the values were obtained:
[1] = Pharmacokinetics and subjective effects in human volunteers; type: in vivo; conditions: standardized questionnaires
Description: The compound from example 6 (N,N diisopropyltryptamine-4-glutarate) is administered to human volunteers by subcutaneous injection of a sterile solution (1 mg/ml) at a dosage of 0.1-0.6 mg/kg. Blood samples are taken at 5, 15, 30, 45, 60, 120, 240 and 480 min and 24 h. Samples are analyzed by LCMS for drug and prodrug. Subjective effects are measured using standardized questionnaires.
The compound from example 2 (4-hemisuccinate of 4-OH-DiPT) is administered to human volunteers by oral ingestion of a tablet containing 50 mg of the prodrug. Blood samples are taken at 5, 15, 30, 45, 60, 120, 240 and 480 min and 24 h. Samples are analyzed by LCMS for drug and prodrug. Subjective effects are measured using standardized questionnaires.

[2] = test system: human patient suffering depression; test: Use in treatment of a human patient suffering depression; type: in vivo; conditions: i.m. or s.c. injection (ca. 25 mg) or oral (ca. 50-200 mg)
Description: The compound of example 6 (N,N diisopropyltryptamine-4-glutarate) is administered by i.m. or s.c. injection (ca. 25 mg; 0.4-0.5 mg/kg) to a human patient suffering depression, or by oral administration (ca. 50-200 mg; 0.8-3.2 mg/kg) with tablets. In another example of use, the compound of example 6 (4-hemiglutarate of 4-OH-DiPT) is similarly administered. Prior to the dosing session, the patient is qualified for the experience by measurement of depression scores, screened for exclusions (e.g. history of psychoses, unfavorable heart condition, pregnancy) and finally, the patient is encouraged to formulate an intent for the dosing session. Dosing is performed in a quiet clinic setting with the patient resting comfortably in an inclined, but unrestrained, position to avoid falls. The patients' eyes are covered, and music is applied. The drug is administered. After 4 h, the patient reports no longer feeling the effects of the drug and is asked to sit up while under supervision. Feeling normal, the patient is allowed to stand (supervised) and feeling in control, is allowed to move around. One hour later, the patient is discharged. Later by 24 h, the patient returns to the clinic to meet with a psychotherapist to recount the session. The patient records a depression score via questionnaire and is again discharged. […]

Solubility in water = type: physicochemical; conditions: HCl salt solid
Description: The structure was confirmed by NMR. Purity was determined by HPLC (>97%). The solid was resuspended in […] HCl-dioxane to form the HCl salt which was filtered, washed with ether and dried. Yield (>95%, purity >95%; DSC endotherm 174C). The solid could be dissolved in water up to 50 mg/ml and lyophilized to form a white “cake”.

rats = test: Head Twitch Response (HTR) / Wet Dog Shakes by visual observation; type: in vivo; conditions: after injection of the compound from example 9, highest intensity at the Tmax of the PK profile
Description: In some cases, Head Twitch Response (HTR) or Wet Dog Shakes (WDS) were recorded by visual observation and counting of the relevant muscle twitches.

[3] = Control hydrolysis in phosphate buffered saline (PBS); type: physicochemical; conditions: PBS (pH 7)
Description: (§1) Pooled mixed gender human plasma (2 ml), mouse plasma, rat plasma and dog plasma were equilibrated at 37° C. The compound of example 9 was added so as to achieve a concentration of 1.0 ug/mL. Aliquots (50 uL) of the mixture were withdrawn at timed intervals (0, 0.004, 0.5, 1, 2 and 4 hours) and quenched with 200 uL of methanol/acetonitrile (1:1). The samples were vortexed and stored at −80° C. until analysis. Assays were done in triplicate. Control samples were done in phosphate buffered saline (PBS, pH 7.4) and simulated gastric fluid (SGF, pH 2). Analysis of samples as performed by HPLC-MS to determine the amounts of prodrug and drug in each sample tested. Table 1 provides the mean concentrations of prodrug remaining at different time points of the experiment.

[4] = Prodrug hydrolysis in pooled mixed gender human plasma at 37° C; type: in vitro ADME; conditions: 1.0 ug/mL
Description: as §1

[5] = Prodrug hydrolysis in mouse plasma at 37° C; type: in vitro ADME; conditions: 1.0 ug/mL
Description: as §1

[6] = Prodrug hydrolysis in rat plasma at 37° C; type: in vitro ADME; conditions: 1.0 ug/mL
Description: as §1

[7] = Pharmacokinetics in rats (i.v. and s.c. injection, LCMS of drug and prodrug); type: in vivo; conditions: rodent, 1.4-2 mg/kg
Description: The compound from example 9 was administered to rats by injection (intravenous and subcutaneous) with a sterile solution (2 mg/ml) at a rate of 1.4-2 mg/kg. Blood samples were taken at 15, 30, 45, 60, 120, 240 min and 360 min and analyzed by LCMS for drug and prodrug. PK profile for the prodrug and active species were obtained and relative bioavailability was determined for each of the routes of administration.
Pharmacokinetics of 1.34 mg/ml 4-HO-DiPT HCl administered by intravenous or subcutaneous injection were performed in parallel under identical conditions as above. […] Immediately obvious is the increased variability with the active species when administered s.c. and intravenous administrations.

[8] = Prodrug hydrolysis in dog plasma at 37° C; type: in vitro ADME; conditions: 1.0 ug/mL
Description: as §1

[9] = Control hydrolysis in simulated gastric fluid (SGF, pH 2); type: physicochemical
Description: as §1

CC(C)N(CCc1c[nH]c2cccc(OC(=O)CCC(=O)O)c12)C(C)C [Example 2, 4-hemisuccinate of 4-hydroxy-diisopropyltryptamine (4-OH-DiPT)]
Subjective effects (intensity of psychoactivity) ([1]; oral tablet 50 mg): correlates with blood levels

CC(C)N(CCc1c[nH]c2cccc(OC(=O)CCCC(=O)O)c12)C(C)C [Example 6, N,N diisopropyltryptamine-4-glutarate]
Subjective effects (intensity of psychoactivity) ([1]; subcutaneous injection, 0.1-0.6 mg/kg): correlates with blood levels
Time after which the patient reports no longer feeling the effects of the drug [2]: 4 h
Solubility in water (Solubility in water): up to 50 mg/ml

CC(C)N(CCc1c[nH]c2cccc(O)c12)C(C)C [Example 4-HO-DIPT, 4-hydroxy-N,N-diisopropyltryptamine]
Intensity of the HTR versus plasma concentration (rats): proportional to the plasma concentration

CC(C)N(CCc1c[nH]c2cccc(OC(=O)CCCC(=O)O)c12)C(C)C [Example 9, HCl salt of N,N diisopropyltryptamine-4-glutarate]
Percentage of remaining prodrug ([3]; time 0 h): 100%
Percentage of remaining prodrug ([3]; time 4 h): 93%
Percentage of remaining prodrug ([4]; time 0 h): 100%
Percentage of remaining prodrug ([4]; time 0.004 h): 100%
Percentage of remaining prodrug ([4]; time 0.5 h): 3.0%
Percentage of remaining prodrug ([4]; time 1 h): 0.23%
Percentage of remaining prodrug ([4]; time 2 h): 0%
Percentage of remaining prodrug ([4]; time 4 h): 0%
Percentage of remaining prodrug ([5]; time 0 h): 100%
Percentage of remaining prodrug ([5]; time 0.004 h): 0%
Percentage of remaining prodrug ([5]; time 0.5 h): 0%
Percentage of remaining prodrug ([5]; time 1 h): 0%
Percentage of remaining prodrug ([5]; time 2 h): 0%
Percentage of remaining prodrug ([5]; time 4 h): 0%
Percentage of remaining prodrug ([6]; time 0 h): 100%
Percentage of remaining prodrug ([6]; time 0.004 h): 0%
Percentage of remaining prodrug ([6]; time 0.5 h): 0%
Percentage of remaining prodrug ([6]; time 1 h): 0%
Percentage of remaining prodrug ([6]; time 2 h): 0%
Percentage of remaining prodrug ([6]; time 4 h): 0%
Prodrug in blood samples after injection [7]: prodrug was not observed
Percentage of remaining prodrug ([8]; time 0 h): 100%
Percentage of remaining prodrug ([8]; time 0.004 h): 100%
Percentage of remaining prodrug ([8]; time 0.5 h): 87%
Percentage of remaining prodrug ([8]; time 1 h): 79%
Percentage of remaining prodrug ([8]; time 2 h): 64%
Percentage of remaining prodrug ([8]; time 4 h): 39%
Percentage of remaining prodrug ([9]; time 0 h): 100%
Percentage of remaining prodrug ([9]; time 0.004 h): 100%
Percentage of remaining prodrug ([9]; time 0.5 h): 100%
Percentage of remaining prodrug ([9]; time 1 h): 100%
Percentage of remaining prodrug ([9]; time 4 h): 101%
